Data set [1] deals with HeLa cells. Nature of the data set: sulforhodamine B (SRB) antiproliferative assay. The data set is classed as cell-based, human. The settings on record: Homo sapiens, HeLa; Table 5; read-out: GI50 in HeLa. From the text: HCC1806 (CRL-2335) and HCC1937 (CRL-2336) human triple-negative breast cancer cells, HeLa (CCL-2) cervical cancer cells and SK-OV-3 (HTB-77) ovarian cancer cells were obtained from ATCC (Manassas, Va.) and validated by STR profiling (Genetica). SK-OV-3 cells stably overexpressing Pgp by adenoviral-mediated expression of MDR1 were obtained from Dr. Susan Kane and subcloned by limiting dilution to isolate the single-cell clones utilized in these studies as SK-OV-3-MDR-1-6/6 (Risinger, A. L. et al. (2008) Cancer Res. 68, 8881-8888). A single-cell clone from transfection of HeLa cells with βIII-tubulin, designated wild type βIII, was constructed and obtained from Dr. Richard Luduena (Risinger, A. L. et al. (2008) Cancer Res. 68, 8881-8888). HCC1806 and HCC1937 cells were cultured in RPMI 1640 media (Corning) with 10% FBS (Cellgro) and 50 μg/mL gentamicin (Gibco). HeLa, […] expressing HeLa, SK-OV-3 and SK-OV-3/MDR-1-6/6 cells were grown in BME media with Earle's salts (Gibco) with 10% FBS, 1× final 1% GlutaMax™ Supplement (Gibco), and […] gentamicin. The use of HeLa cells allows for the direct comparison of the in vitro potency as compared to other compounds of this class, which have been predominantly reported in this line and compound potencies are consistent among three additional cancer cell lines. HeLa cells were also used for ectopic expression of tubulin mutants due to the high degree of transfectability of this cell line. Cells were tested for mycoplasma contamination using the Mycoplasma Detection Kit-Quick Test (Cat: B39032, Lot: JW004).
The sulforhodamine B (SRB) assay was utilized to examine the antiproliferative and cytotoxic effects of the compounds (Skehan, P. et al. (1990) J. Natl. Cancer Inst. 82, 1107-1112; Vichai and Kirtikara (2006) Nat. Protoc. 1, 1112-1116). Approximately 2,000 cells per well (for SK-OV-3, HeLa and βIII-tubulin expressing HeLa) or 4,000 cells per well (for HCC1806 and HCC1937) were seeded in 96-well plates. For each biological replicate, cells were treated in triplicate with each concentration of compound or vehicle control for 48 h in a final volume of 200 μL. The plates were fixed with 10% trichloroacetic acid for protein precipitation of adherent cells and then washed with distilled water. 100 μL of SRB dye, which binds protein stoichiometrically, was added and then unbound dye removed with 1% acetic acid followed by the addition of 200 μL 10 mM Tris to solubilize the dye, which was quantified by absorbance at 560 nm. The percent growth of treated cells relative to the density at the time of drug addiction was calculated as compared to vehicle treated cells.
(In general: Sulforhodamine B stains cellular protein and so reports cell mass.)

For data set [2] the following is noted: unprotected form; Mottram et al. 2006; cited from earlier work.

The structures appear in SMILES notation. Some results are limits rather than exact numbers.

Usually GI50 stands for the concentration that inhibits growth by half. For the molecule `CC(=O)O[C@H]1[C@H]2[C@@H]([C@@H](O)[C@@H](NC(=O)CCCN=[N+]=[N-])[C@H]3C[C@@H]4O[C@@H]4[C@H](OC(C)=O)[C@]23C)[C@@H]2[C@@H](O)[C@@H]3[C@H]([C@H](C)[C@H]4O[C@]45OC(=O)[C@@](C)(O)[C@]35C)[C@@]2(C)[C@H]1OC(C)=O` [152E], the GI50 in data set [1] was 0.09 µM.
On the same count and under the same terms, then `CC(=O)O[C@H]1[C@H]2[C@@H]([C@@H](O)[C@@H](NC(=O)CCCCCCn3cc(COc4ccc5c(c4)Oc4cc(O)ccc4C54OC(=O)c5ccccc54)nn3)[C@H]3C[C@@H]4O[C@@H]4[C@H](OC(C)=O)[C@]23C)[C@@H]2[C@@H](O)[C@@H]3[C@H]([C@H](C)[C@H]4O[C@]45OC(=O)[C@@](C)(O)[C@]35C)[C@@]2(C)[C@H]1OC(C)=O` (some centres unmarked) [158F], with 6 µM.
On to `CC(=O)O[C@H]1[C@H]2[C@@H]([C@@H](O)[C@@H](NC(=O)CCCCCCn3cc(COc4cc5c(cc4F)C4(OC(=O)c6ccccc64)c4cc(F)c(O)cc4O5)nn3)[C@H]3C[C@@H]4O[C@@H]4[C@H](OC(C)=O)[C@]23C)[C@@H]2[C@@H](O)[C@@H]3[C@H]([C@H](C)[C@H]4O[C@]45OC(=O)[C@@](C)(O)[C@]35C)[C@@]2(C)[C@H]1OC(C)=O` (some centres unmarked) [158E], for which the GI50 in data set [1] is above 10 µM.
On to `CC(=O)O[C@H]1[C@H]2[C@@H]([C@@H](O)[C@H](NC(=O)CCCN=[N+]=[N-])[C@H]3C[C@@H]4O[C@@H]4[C@H](OC(C)=O)[C@]23C)[C@@H]2[C@@H](O)[C@@H]3[C@H]([C@H](C)[C@H]4O[C@]45OC(=O)[C@@](C)(O)[C@]35C)[C@@]2(C)[C@H]1OC(C)=O` [152D], for which the GI50 in data set [1] stood at 0.12 µM.
Still for that read-out and setting: then `CC(=O)O[C@H]1[C@H]2[C@@H]([C@@H](O)[C@@H](NC(=O)CCNC(=O)c3ccc4c(c3)C(=O)OC43c4ccc(OC(=O)C(C)(C)C)cc4Oc4cc(OC(=O)C(C)(C)C)ccc43)[C@H]3C[C@@H]4O[C@@H]4[C@H](OC(C)=O)[C@]23C)[C@@H]2[C@@H](O)[C@@H]3[C@H]([C@H](C)[C@H]4O[C@]45OC(=O)[C@@](C)(O)[C@]35C)[C@@]2(C)[C@H]1OC(C)=O` [163D], with 2 µM; and `CC(=O)Oc1ccc2c(c1)Oc1cc(OC(C)=O)ccc1C21OC(=O)c2cc(C(=O)NCCC(=O)N[C@@H]3[C@H](O)[C@H]4[C@@H]5[C@@H](O)[C@@H]6[C@H]([C@H](C)[C@H]7O[C@]78OC(=O)[C@@](C)(O)[C@]68C)[C@@]5(C)[C@@H](OC(C)=O)[C@@H](OC(C)=O)[C@@H]4[C@]4(C)[C@@H]3C[C@@H]3O[C@@H]3[C@@H]4OC(C)=O)ccc21` [162C], with 10 µM; and `CC(=O)O[C@H]1[C@H]2[C@@H]([C@@H](O)[C@@H](NC(=O)CCCn3cc(CNC(=O)CCCC[C@@H]4SC[C@@H]5NC(=O)N[C@@H]54)nn3)[C@H]3C[C@@H]4O[C@@H]4[C@H](OC(C)=O)[C@]23C)[C@@H]2[C@@H](O)[C@@H]3[C@H]([C@H](C)[C@H]4O[C@]45OC(=O)[C@@](C)(O)[C@]35C)[C@@]2(C)[C@H]1OC(C)=O` [154C], with above 10 µM.
For the molecule `CC(=O)O[C@H]1[C@H]2[C@@H]([C@@H](O)[C@@H](NC(=O)CCCn3cc(CCC(=O)NCCCC[C@@H](NC(=O)[C@H](Cc4ccc(O)cc4)NC(=O)[C@H](CO)NC(=O)[C@H](Cc4c[nH]c5ccccc45)NC(=O)[C@H](Cc4c[nH]cn4)NC(=O)[C@@H]4CCC(=O)N4)C(=O)N[C@@H](CC(C)C)C(=O)N[C@@H](CCCNC(=N)N)C(=O)N4CCC[C@H]4C(=O)NCC(N)=O)nn3)[C@H]3C[C@@H]4O[C@@H]4[C@H](OC(C)=O)[C@]23C)[C@@H]2[C@@H](O)[C@@H]3[C@H]([C@H](C)[C@H]4O[C@]45OC(=O)[C@@](C)(O)[C@]35C)[C@@]2(C)[C@H]1OC(C)=O` [171B], in data set [1], the GI50 was 2.6 µM.
The same measure, in the same setting: the same measure for `CC(=O)O[C@H]1[C@H]2[C@@H]([C@@H](O)[C@@H](NC(=O)CNC(=O)c3ccc4c(c3)C(=O)OC43c4ccc(OC(=O)C(C)(C)C)cc4Oc4cc(OC(=O)C(C)(C)C)ccc43)[C@H]3C[C@@H]4O[C@@H]4[C@H](OC(C)=O)[C@]23C)[C@@H]2[C@@H](O)[C@@H]3[C@H]([C@H](C)[C@H]4O[C@]45OC(=O)[C@@](C)(O)[C@]35C)[C@@]2(C)[C@H]1OC(C)=O` [164E]: 0.74 µM; for `CC(=O)O[C@H]1[C@H]2[C@@H]([C@@H](O)[C@@H](NC(=O)CCCn3cc(CNC(=O)c4ccc(-c5c6cc(F)c(=O)cc-6oc6cc(O)c(F)cc56)c(C(=O)O)c4)nn3)[C@H]3C[C@@H]4O[C@@H]4[C@H](OC(C)=O)[C@]23C)[C@@H]2[C@@H](O)[C@@H]3[C@H]([C@H](C)[C@H]4O[C@]45OC(=O)[C@@](C)(O)[C@]35C)[C@@]2(C)[C@H]1OC(C)=O` [154B]: above 10 µM.
As usually defined, the pKa is the pH at which an ionisable group is half protonated. With `O=C1OC2(c3ccc(O)cc3Oc3cc(O)ccc32)c2ccccc21` [fluorescein], the pKa in data set [2] was 6.5.
Consider `O=C(O)c1ccccc1-c1c2cc(F)c(=O)cc-2oc2cc(O)c(F)cc12` [Oregon Green, Oregon green], for which the pKa in data set [2] is 4.8.
On to `CC(=O)Oc1cc2c(cc1F)C1(OC(=O)c3cc(C(=O)NCCC(=O)N[C@@H]4[C@H](O)[C@H]5[C@@H]6[C@@H](O)[C@@H]7[C@H]([C@H](C)[C@H]8O[C@]89OC(=O)[C@@](C)(O)[C@]79C)[C@@]6(C)[C@@H](OC(C)=O)[C@@H](OC(C)=O)[C@@H]5[C@]5(C)[C@@H]4C[C@@H]4O[C@@H]4[C@@H]5OC(C)=O)ccc31)c1cc(F)c(OC(C)=O)cc1O2` [163E], for which, in data set [1], the GI50 is above 10 µM.
The same measure, in the same setting: then `CC(=O)O[C@H]1[C@H]2[C@@H]([C@@H](O)[C@@H](NC(=O)CCCn3cc(COc4cc5c(cc4F)C4(OC(=O)c6ccccc64)c4cc(F)c(O)cc4O5)nn3)[C@H]3C[C@@H]4O[C@@H]4[C@H](OC(C)=O)[C@]23C)[C@@H]2[C@@H](O)[C@@H]3[C@H]([C@H](C)[C@H]4O[C@]45OC(=O)[C@@](C)(O)[C@]35C)[C@@]2(C)[C@H]1OC(C)=O` (some centres unmarked) [155F], with 3.7 µM; and `CC(=O)Oc1cc2c(cc1F)C1(OC(=O)c3cc(C(=O)NCc4cn(CCCC(=O)N[C@@H]5[C@H](O)[C@H]6[C@@H]7[C@@H](O)[C@@H]8[C@H]([C@H](C)[C@H]9O[C@]9%10OC(=O)[C@@](C)(O)[C@]8%10C)[C@@]7(C)[C@@H](OC(C)=O)[C@@H](OC(C)=O)[C@@H]6[C@]6(C)[C@@H]5C[C@@H]5O[C@@H]5[C@@H]6OC(C)=O)nn4)ccc31)c1cc(F)c(OC(C)=O)cc1O2` [154J], with above 10 µM; and `CC(=O)O[C@H]1[C@H]2[C@@H]([C@@H](O)[C@@H](NC(=O)CCCn3cc(COc4ccc5c(c4)Oc4cc(O)ccc4C54OC(=O)c5ccccc54)nn3)[C@H]3C[C@@H]4O[C@@H]4[C@H](OC(C)=O)[C@]23C)[C@@H]2[C@@H](O)[C@@H]3[C@H]([C@H](C)[C@H]4O[C@]45OC(=O)[C@@](C)(O)[C@]35C)[C@@]2(C)[C@H]1OC(C)=O` (some centres unmarked) [155G], with 8.4 µM.
For the molecule `CC(=O)O[C@H]1[C@H]2C([C@@H](O)[C@@H](NC(=O)c3ccc4c(c3)C(=O)OC43c4ccc(OC(=O)C(C)(C)C)cc4Oc4cc(OC(=O)C(C)(C)C)ccc43)[C@H]3C[C@@H]4O[C@@H]4[C@H](OC(C)=O)[C@@]32C)[C@@H]2[C@@H](O)[C@@H]3[C@H]([C@H](C)[C@H]4O[C@]45OC(=O)[C@@](C)(O)[C@]35C)[C@@]2(C)[C@H]1OC(C)=O` (some centres unmarked) [164B], in data set [1], the GI50 worked out at 0.031 µM.

These data come from patent publication US20230061432A1, “NEW TECHNOLOGY TO CONJUGATE THE TACCALONOLIDE MICROTUBULE STABILIZERS WITH LINKERS/PAYLOADS” (priority 2019, published 2023).
